What was measured:
Experiment in all cases: relative viability (nuclei count vs DMSO), 5 days (fraction); higher = more cells survive
AT9283 + Olaparib = compound: O=C(Nc1c[nH]nc1-c1nc2ccc(CN3CCOCC3)cc2[nH]1)NC1CC1 [AT9283] + O=C(c1cc(Cc2n[nH]c(=O)c3ccccc23)ccc1F)N1CCN(C(=O)C2CC2)CC1 [Olaparib] (partner 8 µM)
In short: (§1)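 One day after seeding in 1536-well plates, lung cancer cell lines were dosed by pin tool. Dosing was either single-drug or a fixed anchor-drug dose plus five library-drug doses (not always all listed) in √10 steps. After 5 days, nuclei were stained in one fix-and-stain step and counted on 4× images, and relative viability is the nuclei count of treated wells over that of vehicle wells, given as the median of duplicate plates.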

Erlotinib + Phenformin = compound: C#Cc1cccc(Nc2ncnc3cc(OCCOC)c(OCCOC)cc23)c1 [Erlotinib] + N=C(N)NC(=N)NCCc1ccccc1 [Phenformin] (partner 250 µM)
In short: as §1

AT9283 + Trametinib = compound: O=C(Nc1c[nH]nc1-c1nc2ccc(CN3CCOCC3)cc2[nH]1)NC1CC1 [AT9283] + CC(=O)Nc1cccc(-n2c(=O)n(C3CC3)c(=O)c3c(Nc4ccc(I)cc4F)n(C)c(=O)c(C)c32)c1 [Trametinib] (partner 0.02 µM)
In short: as §1

Erlotinib + Linsitinib = compound: C#Cc1cccc(Nc2ncnc3cc(OCCOC)c(OCCOC)cc23)c1 [Erlotinib] + C[C@]1(O)C[C@@H](c2nc(-c3ccc4ccc(-c5ccccc5)nc4c3)c3c(N)nccn32)C1 [Linsitinib] (partner 1 µM)
In short: as §1

AT9283 + Linsitinib = compound: O=C(Nc1c[nH]nc1-c1nc2ccc(CN3CCOCC3)cc2[nH]1)NC1CC1 [AT9283] + C[C@]1(O)C[C@@H](c2nc(-c3ccc4ccc(-c5ccccc5)nc4c3)c3c(N)nccn32)C1 [Linsitinib] (partner 1 µM)
In short: as §1

Cell Line: NCI-H596
- relative viability (AT9283 + Olaparib; first compound 0.003 µM): 0.653
- relative viability (AT9283 + Olaparib; first compound 0.03 µM): 0.663
- relative viability (AT9283 + Olaparib; first compound 0.09487 µM): 0.619
- relative viability (AT9283 + Olaparib; first compound 0.3 µM): 0.567
- relative viability (Erlotinib + Phenformin; first compound 0.02 µM): 0.745
- relative viability (Erlotinib + Phenformin; first compound 0.2 µM): 0.698
- relative viability (Erlotinib + Phenformin; first compound 0.6325 µM): 0.735
- relative viability (Erlotinib + Phenformin; first compound 2 µM): 0.688
- relative viability (AT9283 + Trametinib; first compound 0.003 µM): 0.76
- relative viability (AT9283 + Trametinib; first compound 0.03 µM): 0.868
- relative viability (AT9283 + Trametinib; first compound 0.09487 µM): 0.566
- relative viability (AT9283 + Trametinib; first compound 0.3 µM): 0.635
- relative viability (Erlotinib + Linsitinib; first compound 0.02 µM): 1.03
- relative viability (Erlotinib + Linsitinib; first compound 0.2 µM): 0.939
- relative viability (Erlotinib + Linsitinib; first compound 0.6325 µM): 1.02
- relative viability (Erlotinib + Linsitinib; first compound 2 µM): 0.789
- relative viability (AT9283 + Linsitinib; first compound 0.003 µM): 1.06
- relative viability (AT9283 + Linsitinib; first compound 0.03 µM): 1.01
- relative viability (AT9283 + Linsitinib; first compound 0.09487 µM): 0.912
- relative viability (AT9283 + Linsitinib; first compound 0.3 µM): 0.564

Cell Line: NCI-H647
- relative viability (AT9283 + Olaparib; first compound 0.003 µM): 0.555
- relative viability (AT9283 + Olaparib; first compound 0.03 µM): 0.311
- relative viability (AT9283 + Olaparib; first compound 0.09487 µM): 0.0867
- relative viability (AT9283 + Olaparib; first compound 0.3 µM): 0.0596
- relative viability (Erlotinib + Phenformin; first compound 0.02 µM): 0.586
- relative viability (Erlotinib + Phenformin; first compound 0.2 µM): 0.476
- relative viability (Erlotinib + Phenformin; first compound 0.6325 µM): 0.632
- relative viability (Erlotinib + Phenformin; first compound 2 µM): 0.353
- relative viability (AT9283 + Trametinib; first compound 0.003 µM): 0.46
- relative viability (AT9283 + Trametinib; first compound 0.03 µM): 0.47
- relative viability (AT9283 + Trametinib; first compound 0.09487 µM): 0.138
- relative viability (AT9283 + Trametinib; first compound 0.3 µM): 0.173
- relative viability (Erlotinib + Linsitinib; first compound 0.02 µM): 1.2
- relative viability (Erlotinib + Linsitinib; first compound 0.2 µM): 1.15
- relative viability (Erlotinib + Linsitinib; first compound 0.6325 µM): 1.19
- relative viability (Erlotinib + Linsitinib; first compound 2 µM): 0.971
- relative viability (AT9283 + Linsitinib; first compound 0.003 µM): 1.11
- relative viability (AT9283 + Linsitinib; first compound 0.03 µM): 0.17
- relative viability (AT9283 + Linsitinib; first compound 0.09487 µM): 0.151
- relative viability (AT9283 + Linsitinib; first compound 0.3 µM): 0.11

Cell Line: NCI-H650
- relative viability (AT9283 + Olaparib; first compound 0.003 µM): 0.396
- relative viability (AT9283 + Olaparib; first compound 0.03 µM): 0.399
- relative viability (AT9283 + Olaparib; first compound 0.09487 µM): 0.215
- relative viability (AT9283 + Olaparib; first compound 0.3 µM): 0.146
- relative viability (Erlotinib + Phenformin; first compound 0.02 µM): 0.424
- relative viability (Erlotinib + Phenformin; first compound 0.2 µM): 0.462
- relative viability (Erlotinib + Phenformin; first compound 0.6325 µM): 0.449
- relative viability (Erlotinib + Phenformin; first compound 2 µM): 0.479
- relative viability (AT9283 + Trametinib; first compound 0.003 µM): 0.976
- relative viability (AT9283 + Trametinib; first compound 0.03 µM): 0.906
- relative viability (AT9283 + Trametinib; first compound 0.09487 µM): 0.394
- relative viability (AT9283 + Trametinib; first compound 0.3 µM): 0.179
- relative viability (Erlotinib + Linsitinib; first compound 0.02 µM): 0.817
- relative viability (Erlotinib + Linsitinib; first compound 0.6325 µM): 1.06
- relative viability (Erlotinib + Linsitinib; first compound 2 µM): 0.843
- relative viability (AT9283 + Linsitinib; first compound 0.003 µM): 0.7
- relative viability (AT9283 + Linsitinib; first compound 0.03 µM): 0.601
- relative viability (AT9283 + Linsitinib; first compound 0.09487 µM): 0.262
- relative viability (AT9283 + Linsitinib; first compound 0.3 µM): 0.164

Cell Line: NCI-H661
- relative viability (AT9283 + Olaparib; first compound 0.003 µM): 0.759
- relative viability (AT9283 + Olaparib; first compound 0.03 µM): 0.499
- relative viability (AT9283 + Olaparib; first compound 0.09487 µM): 0.371
- relative viability (AT9283 + Olaparib; first compound 0.3 µM): 0.418
- relative viability (Erlotinib + Phenformin; first compound 0.02 µM): 0.301
- relative viability (Erlotinib + Phenformin; first compound 0.2 µM): 0.264
- relative viability (Erlotinib + Phenformin; first compound 0.6325 µM): 0.269
- relative viability (Erlotinib + Phenformin; first compound 2 µM): 0.318
- relative viability (AT9283 + Trametinib; first compound 0.003 µM): 0.571
- relative viability (AT9283 + Trametinib; first compound 0.03 µM): 0.441
- relative viability (AT9283 + Trametinib; first compound 0.09487 µM): 0.423
- relative viability (AT9283 + Trametinib; first compound 0.3 µM): 0.323
- relative viability (Erlotinib + Linsitinib; first compound 0.02 µM): 0.731
- relative viability (Erlotinib + Linsitinib; first compound 0.2 µM): 0.432
- relative viability (Erlotinib + Linsitinib; first compound 0.6325 µM): 0.663
- relative viability (Erlotinib + Linsitinib; first compound 2 µM): 0.493
- relative viability (AT9283 + Linsitinib; first compound 0.003 µM): 0.513
- relative viability (AT9283 + Linsitinib; first compound 0.03 µM): 0.474
- relative viability (AT9283 + Linsitinib; first compound 0.09487 µM): 0.252
- relative viability (AT9283 + Linsitinib; first compound 0.3 µM): 0.295

Cell Line: NCI-H727
- relative viability (AT9283 + Olaparib; first compound 0.003 µM): 0.84
- relative viability (AT9283 + Olaparib; first compound 0.03 µM): 0.768
- relative viability (AT9283 + Olaparib; first compound 0.09487 µM): 0.494
- relative viability (AT9283 + Olaparib; first compound 0.3 µM): 0.496
- relative viability (Erlotinib + Phenformin; first compound 0.02 µM): 0.572
- relative viability (Erlotinib + Phenformin; first compound 0.6325 µM): 0.639
- relative viability (Erlotinib + Phenformin; first compound 2 µM): 0.404
- relative viability (AT9283 + Trametinib; first compound 0.003 µM): 0.378
- relative viability (AT9283 + Trametinib; first compound 0.03 µM): 0.418
- relative viability (AT9283 + Trametinib; first compound 0.09487 µM): 0.359
- relative viability (AT9283 + Trametinib; first compound 0.3 µM): 0.347
- relative viability (Erlotinib + Linsitinib; first compound 0.02 µM): 0.284
- relative viability (Erlotinib + Linsitinib; first compound 0.2 µM): 0.349
- relative viability (Erlotinib + Linsitinib; first compound 0.6325 µM): 0.282
- relative viability (Erlotinib + Linsitinib; first compound 2 µM): 0.232
- relative viability (AT9283 + Linsitinib; first compound 0.003 µM): 0.211
- relative viability (AT9283 + Linsitinib; first compound 0.03 µM): 0.16
- relative viability (AT9283 + Linsitinib; first compound 0.09487 µM): 0.199
- relative viability (AT9283 + Linsitinib; first compound 0.3 µM): 0.23

Cell Line: NCI-H838
- relative viability (AT9283 + Olaparib; first compound 0.003 µM): 0.745
- relative viability (AT9283 + Olaparib; first compound 0.03 µM): 0.323
- relative viability (AT9283 + Olaparib; first compound 0.09487 µM): 0.183
- relative viability (AT9283 + Olaparib; first compound 0.3 µM): 0.164
- relative viability (Erlotinib + Phenformin; first compound 0.02 µM): 0.668
- relative viability (Erlotinib + Phenformin; first compound 0.2 µM): 0.509
- relative viability (Erlotinib + Phenformin; first compound 0.6325 µM): 0.694
- relative viability (Erlotinib + Phenformin; first compound 2 µM): 0.493
- relative viability (AT9283 + Trametinib; first compound 0.003 µM): 0.543
- relative viability (AT9283 + Trametinib; first compound 0.03 µM): 0.275
- relative viability (AT9283 + Trametinib; first compound 0.09487 µM): 0.16
- relative viability (AT9283 + Trametinib; first compound 0.3 µM): 0.144
- relative viability (Erlotinib + Linsitinib; first compound 0.02 µM): 1.19
- relative viability (Erlotinib + Linsitinib; first compound 0.2 µM): 0.93
- relative viability (Erlotinib + Linsitinib; first compound 0.6325 µM): 1.05
- relative viability (Erlotinib + Linsitinib; first compound 2 µM): 0.906
- relative viability (AT9283 + Linsitinib; first compound 0.003 µM): 1.01
- relative viability (AT9283 + Linsitinib; first compound 0.03 µM): 0.247
- relative viability (AT9283 + Linsitinib; first compound 0.09487 µM): 0.217
- relative viability (AT9283 + Linsitinib; first compound 0.3 µM): 0.197

From the supplement of paper PMC10307832
